In ChEMBL document CHEMBL1201862, “PubChem BioAssay data set” (2004):
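All cell lines were grown in 96-well plates and treated with compound for 48 hours. GI50 marks 50% less growth.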 Calls of active or inactive are those of the source. Rule as the data show it: active = GI50 up to about 1.1 µM and inactive = higher.

Key:
Experiment in all cases: NCI tumour cell line growth inhibition, 48 h
EKVX = system: EKVX
SN12C = system: SN12C
UACC-257 = system: UACC-257
A549 = system: A549
SK-MEL-5 = system: SK-MEL-5
SK-MEL-28 = system: SK-MEL-28
MDA-N = system: MDA-N
KM12 = system: KM12
SR = system: SR
CAKI-1 = system: CAKI-1
SF-268 = system: SF-268
SNB-19 = system: SNB-19
OVCAR-5 = system: OVCAR-5
T47D = system: T47D
LOX IMVI = system: LOX IMVI
HL-60 = system: HL-60
MDA-MB-435 = system: MDA-MB-435
NCI-H460 = system: NCI-H460
RPMI-8226 = system: RPMI-8226
UO-31 = system: UO-31

Row | SMILES | GI50 (EKVX) | GI50 (SN12C) | GI50 (UACC-257) | GI50 (A549) | GI50 (SK-MEL-5) | GI50 (SK-MEL-28) | GI50 (MDA-N) | GI50 (KM12) | GI50 (SR) | GI50 (CAKI-1) | GI50 (SF-268) | GI50 (SNB-19) | GI50 (OVCAR-5) | GI50 (T47D) | GI50 (LOX IMVI) | GI50 (HL-60) | GI50 (MDA-MB-435) | GI50 (NCI-H460) | GI50 (RPMI-8226) | GI50 (UO-31)
1 | O=C(O)c1nc2nc(Cl)c(Cl)nc2[nH]1 | > 100 µM (inactive) | > 100 µM (inactive) | > 100 µM (inactive) | > 100 µM (inactive) | > 100 µM (inactive) | > 100 µM (inactive) | > 100 µM (inactive) | > 100 µM (inactive) | > 100 µM (inactive) | > 100 µM (inactive) | > 100 µM (inactive) | > 100 µM (inactive) | > 100 µM (inactive) | > 100 µM (inactive) | > 100 µM (inactive) | > 100 µM (inactive) | > 100 µM (inactive) | > 100 µM (inactive) | > 100 µM (inactive) | 
2 | CC1=CC[C@@H]2[C@@H](CC[C@@]2(C)O)C(C)(C)[C@H]1CC[C@@H]1[C@@]2(C)CC[C@@H](O)C(C)(C)O[C@@H]2CC[C@]1(C)O |  | 24.9 µM (inactive) | 25.6 µM (inactive) | 27.3 µM (inactive) | 13.3 µM (inactive) | 16.8 µM (inactive) | 22.5 µM (inactive) |  | 14.9 µM (inactive) | 20 µM (inactive) |  | 14.2 µM (inactive) | 29.9 µM (inactive) | 39.2 µM (inactive) | 16.3 µM (inactive) | 21.4 µM (inactive) | 22.3 µM (inactive) | 17.7 µM (inactive) | 18.9 µM (inactive) | 17 µM (inactive)
3 | CC1CC(NN(C)C)C2(C(N)=O)C(N)=NC(=O)C12C#N (centres undefined) | > 100 µM (inactive) | > 100 µM (inactive) | > 100 µM (inactive) | > 100 µM (inactive) | > 100 µM (inactive) | > 100 µM (inactive) | > 100 µM (inactive) | > 100 µM (inactive) | > 100 µM (inactive) | > 100 µM (inactive) | > 100 µM (inactive) | > 100 µM (inactive) | > 100 µM (inactive) | > 100 µM (inactive) | > 100 µM (inactive) | > 10 µM (inactive) | > 100 µM (inactive) |  | > 100 µM (inactive) | > 100 µM (inactive)
4 | CC1CC[C@@]2(OC1)OC1C[C@H]3[C@@H]4CCC5CC(O)CC[C@]5(C)[C@H]4C/C(=N\N(C)C)[C@]3(C)C1[C@@H]2C (some centres undefined) |  | 24.8 µM (inactive) | 38.8 µM (inactive) | 35.3 µM (inactive) | 21.7 µM (inactive) | 43.7 µM (inactive) | 19.9 µM (inactive) | 25.5 µM (inactive) | 13.8 µM (inactive) |  | 31.1 µM (inactive) | 30.1 µM (inactive) | 27.1 µM (inactive) | 31.8 µM (inactive) | 26.7 µM (inactive) | 22.2 µM (inactive) | 19.5 µM (inactive) | 30.5 µM (inactive) | 26.9 µM (inactive) | 33.5 µM (inactive)
5 | CCOC(=O)C(NC(=O)CC)(Nc1ccc(F)cc1F)C(F)(F)F (centres undefined) | > 100 µM (inactive) | > 100 µM (inactive) | > 100 µM (inactive) | > 100 µM (inactive) | > 100 µM (inactive) | > 100 µM (inactive) | 31.9 µM (inactive) |  | > 100 µM (inactive) | 1.31 µM (inactive) | > 100 µM (inactive) | > 100 µM (inactive) | > 100 µM (inactive) | > 100 µM (inactive) | > 100 µM (inactive) | 34 µM (inactive) | 40.7 µM (inactive) |  | > 100 µM (inactive) | 11.8 µM (inactive)
6 | CC(C)(C)OC(=O)n1c(-c2ccccc2F)cc(=O)c2cc3c(cc21)OCO3 |  |  |  | 0.103 µM (active) | 0.0521 µM (active) | > 100 µM (inactive) | < 0.01 µM (active) | 0.028 µM (active) | 0.0327 µM (active) |  | 0.191 µM (active) | 0.145 µM (active) | 6.53 µM (inactive) | 16.8 µM (inactive) | 0.111 µM (active) | 0.0451 µM (active) | 0.0214 µM (active) | 0.0656 µM (active) | 0.0364 µM (active) | 0.188 µM (active)
7 | CNC(=S)NN=C1NCCCN1 | > 100 µM (inactive) |  | > 100 µM (inactive) | > 100 µM (inactive) | > 100 µM (inactive) | > 100 µM (inactive) | > 100 µM (inactive) | > 100 µM (inactive) | > 100 µM (inactive) | > 100 µM (inactive) | > 100 µM (inactive) | > 100 µM (inactive) | > 100 µM (inactive) | > 100 µM (inactive) | > 100 µM (inactive) | > 100 µM (inactive) | > 100 µM (inactive) | > 100 µM (inactive) | > 100 µM (inactive) | > 100 µM (inactive)
8 | O=C(OC1CN2CCC1CC2)N(c1ccccc1)c1ccccc1 (centres undefined) | > 100 µM (inactive) | > 100 µM (inactive) | 62.5 µM (inactive) | > 100 µM (inactive) | 29.4 µM (inactive) | 80.5 µM (inactive) | > 100 µM (inactive) |  | 4.61 µM (inactive) | > 100 µM (inactive) | > 100 µM (inactive) | > 100 µM (inactive) | > 100 µM (inactive) | > 100 µM (inactive) | 38.5 µM (inactive) | 24.9 µM (inactive) | > 100 µM (inactive) |  | > 100 µM (inactive) | 86.9 µM (inactive)
